The values that follow come from US20090036444A1, “5-5-Membered fused heterocyclic compound and use thereof as HCV polymerase inhibitor” (priority 2003, published 2009).

The target in assay [1] is T1, HCV polymerase H544 1b 3X (Hepatitis C virus genotype 1b, UniProt P26663).
T1 construct: a region encoding NS5B (J Virol 1991 March, 65(3), 1105-13, 544 amino acids after deletion of 47 amino acids on the C-terminal); 6 His (C); made in house; host or cells: Escherichia coli
The assay is described as follows: Assay of enzyme (HCV polymerase) inhibitory activity, H544 1b 3X. Format: biochemical, HCV BK strain. From the text: The evaluation of the HCV polymerase inhibitory activity of the compound of the present invention is explained in the following. This polymerase is an enzyme coded for by the non-structural protein region called NS5B on the genome RNA of HCV (EMBO J., 15:12-22, 1996).
Using, as a template, a cDNA clone corresponding to the full length genome RNA of HCV BK strain obtained from the blood of a patient with hepatitis C, a region encoding NS5B (J Virol 1991 March, 65(3), 1105-13, 544 amino acids after deletion of 47 amino acids on the C-terminal) was amplified by PCR. The objective gene was prepared by adding a 6 His tag {base pair encoding 6 continuous histidine (His)} to the 3′ end thereof and transformed to Escherichia coli. The Escherichia coli capable of producing the objective protein was cultured. The obtained cells were suspended in a buffer solution and crushed in a microfluidizer. The supernatant was obtained by centrifugation and applied to various column chromatographys {mono-S, Sephacryl S-200 (Pharmacia)}, inclusive of metal chelate chromatography, to give a standard enzyme product.
Using a synthetic primer designed based on the sequence of HCV genomic 3′ untranslated region, a DNA fragment (148 bp) containing polyU and 3′X sequence was entirely synthesized and cloned into plasmid pBluescript SK II (+) (Stratagene). The cDNA encoding full length NS5B, which was prepared in i) above, was digested with restriction enzyme KpnI to give a cDNA fragment containing the nucleotide sequence of from the restriction enzyme cleavage site to the termination codon. This cDNA fragment was inserted into the upstream of 3′ untranslated region of the DNA in pBluescript SK II(+) and ligated. The about 450 bp inserted DNA sequence was used as a template in the preparation of substrate RNA. This plasmid was cleaved immediately after the 3′X sequence, linearized and purified by phenol-chloroform treatment and ethanol precipitation to give DNA.
RNA was synthesized (37° C., 3 hr) by run-off method using this purified DNA as a template, a promoter of pBluescript SK II(+), MEGAscript RNA synthesis kit (Ambion) and T7 RNA polymerase. DNase I was added and the mixture was incubated for 1 hr. The template DNA was removed by decomposition to give a crude RNA product. This crude product was treated with phenol-chloroform and purified by ethanol precipitation to give the objective substrate RNA.
This RNA was applied to formaldehyde denaturation agarose gel electrophoresis to confirm the quality thereof and preserved at −80° C.
A test substance (compound of the present invention) and a reaction mixture (30 μl) having the following composition were reacted at 25° C. for 90 min. 10% Trichloroacetic acid at 4° C. and 1% sodium pyrophosphate solution (150 μl) were added to this reaction mixture to stop the reaction. The reaction mixture was left standing in ice for 15 min to insolubilize RNA. This RNA was trapped on a glass filter (Whatman GF/C and the like) upon filtration by suction. This filter was washed with a solution containing 1% trichloroacetic acid and 0.1% sodium pyrophosphate, washed with 90% ethanol and dried. A liquid scintillation cocktail (Packard) was added and the radioactivity of RNA synthesized by the enzyme reaction was measured on a liquid scintillation counter.
The HCV polymerase inhibitory activity (IC50) of the compound of the present invention was calculated from the values of radioactivity of the enzyme reaction with and without the test substance.
The results are shown in Table 18, wherein each symbol means that IC50 falls within the following range.
Reaction mixture: HCV polymerase (0.5 μg/ml) obtained in i), substrate RNA (5 μg/ml) obtained in ii), ATP (50 μM), GTP (50 μM), CTP (50 μM), UTP (2 μM), [5,6-^3H] UTP (46 Ci/mmol (Amersham), 1 μCi) 20 mM Tris-HCl (pH 7.5), EDTA (1 mM), MgCl2 (5 mM), NaCl (50 mM), DTT (1 mM), BSA (0.01%)

In assay [2] the target is T2, HCV polymerase H544 1a 3X (UniProt P27958).
T2 construct: fused on or other part: 6 His tag at the C-terminus, for the BK (1b) enzyme
Briefly: Assay of enzyme (HCV polymerase) inhibitory activity, H544 1a 3X. It counts as biochemical.

[3] abbreviates: 25° C., 90 min, [5,6-3H]UTP incorporation, read-out: H544 1a 3X IC50.
Setting [4] is: read-out: H544 1a 3X IC50, 25° C., 90 min, [5,6-3H]UTP incorporation.

Structures can show the parent of a compound that is named as a salt. Where two headings read alike, the source gives them in different places. A value given as a limit tells only on which side of the number the result lay.

T1 sequence (P26663 2420-2963): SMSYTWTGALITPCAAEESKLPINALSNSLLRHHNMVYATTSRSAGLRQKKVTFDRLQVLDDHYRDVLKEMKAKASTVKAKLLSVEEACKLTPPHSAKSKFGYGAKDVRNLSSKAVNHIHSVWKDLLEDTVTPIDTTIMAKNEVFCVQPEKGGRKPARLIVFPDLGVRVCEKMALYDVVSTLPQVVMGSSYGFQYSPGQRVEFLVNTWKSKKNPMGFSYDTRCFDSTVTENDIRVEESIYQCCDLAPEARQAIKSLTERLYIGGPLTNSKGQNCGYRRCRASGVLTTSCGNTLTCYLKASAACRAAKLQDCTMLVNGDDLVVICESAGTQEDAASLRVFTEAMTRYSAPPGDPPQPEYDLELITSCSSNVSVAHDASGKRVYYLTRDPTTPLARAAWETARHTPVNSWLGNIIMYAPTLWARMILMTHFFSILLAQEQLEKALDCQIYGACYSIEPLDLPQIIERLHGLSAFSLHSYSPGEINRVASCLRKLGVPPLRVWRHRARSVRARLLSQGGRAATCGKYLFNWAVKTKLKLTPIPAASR

As for `CN(CC(=O)N1CCCCC1)C(=O)Cn1c(-c2ccc(OCc3ccccc3)cc2)c(C2CCCCC2)c2sc(C(=O)O)cc21` [Example 50, 5-(4-benzyloxyphenyl)-6-cyclohexyl-4-{[N-methyl-N-(2-oxo-2-piperidinoethyl)carbamoyl]methyl}-4H-thieno[3,2-b]pyrrole-2-carboxylic acid], the IC50 in assay [1] and in assay [2] (setting [3]) was under 100 nM in each case.

Consider `O=C(Cn1c(-c2ccc(OCc3ccccc3)cc2)c(C2CCCCC2)c2sc(C(=O)O)cc21)Nc1ccc(N2CCOCC2)cc1` [Example 51, 5-(4-benzyloxyphenyl)-6-cyclohexyl-4-[(4-morpholinophenylcarbamoyl)methyl]-4H-thieno[3,2-b]pyrrole-2-carboxylic acid hydrochloride], for which the IC50 in assay [1] and in assay [2] (setting [3]) was under 100 nM throughout.

As for `O=C(O)c1cc2c(s1)c(C1CCCCC1)c(-c1ccc(OCc3ccccc3)cc1)n2CC(=O)N1CCN(C2CCCCC2)CC1` [Example 52, 5-(4-benzyloxyphenyl)-6-cyclohexyl-4-[2-(4-cyclohexylpiperazin-1-yl)-2-oxoethyl]-4H-thieno[3,2-b]pyrrole-2-carboxylic acid hydrochloride], the IC50 in assay [1] and in assay [2] (setting [3]) was under 100 nM each time.

As to `O=C(O)c1cc2c(s1)c(C1CCCCC1)c(-c1ccc(OCc3ccccc3)cc1)n2CCN1CCN(C2CCCCC2)CC1` [Example 53, 5-(4-benzyloxyphenyl)-6-cyclohexyl-4-[2-(4-cyclohexylpiperazin-1-yl)ethyl]-4H-thieno[3,2-b]pyrrole-2-carboxylic acid dihydrochloride], the IC50 in assay [1] and in assay [2] (setting [4]) was 100 to 1000 nM throughout.

As to `O=C(O)c1cc2c(s1)c(C1CCCCC1)c(-c1ccc(OCc3ccccc3)cc1)n2CC(=O)N1CCC(N2CCCCC2)CC1` [Example 54, 5-(4-benzyloxyphenyl)-4-[2-(1,4′-bipiperidinyl-1′-yl)-2-oxoethyl]-6-cyclohexyl-4H-thieno[3,2-b]pyrrole-2-carboxylic acid hydrochloride], the IC50 in assay [1] and in assay [2] (setting [3]) was under 100 nM each time.

Regarding `O=C(O)c1cc2c(s1)c(C1CCCCC1)c(-c1ccc(OCc3ccccc3)cc1)n2CCN1CCC(N2CCCCC2)CC1` [Example 55, 5-(4-benzyloxyphenyl)-4-[2-(1,4′-bipiperidinyl-1′-yl)ethyl]-6-cyclohexyl-4H-thieno[3,2-b]pyrrole-2-carboxylic acid dihydrochloride], the IC50 in assay [1] and in assay [2] (setting [3]) was 100 to 1000 nM in each case.

`CN(C)CCn1c(-c2ccc(OCc3cc(S(C)(=O)=O)ccc3N3CCOCC3)cc2)c(C2CCCCC2)c2sc(C(=O)O)cc21` [Example 56, 6-cyclohexyl-4-(2-dimethylaminoethyl)-5-[4-(5-methanesulfonyl-2-morpholinobenzyloxy)phenyl]-4H-thieno[3,2-b]pyrrole-2-carboxylic acid dihydrochloride]: the IC50 in assay [1] and in assay [2] (setting [4]) was under 100 nM throughout.

With `CN(C(=O)CN1CCOCC1)c1ccc(N2CCOCC2)c(COc2ccc(-c3c(C4CCCCC4)c4sc(C(=O)O)cc4n3C)cc2)c1` [Example 57, 6-cyclohexyl-4-methyl-5-(4-{5-[N-methyl-N-(2-morpholinoacetyl)amino]-2-morpholinobenzyloxy}phenyl)-4H-thieno[3,2-b]pyrrole-2-carboxylic acid dihydrochloride], the IC50 in assay [1] and in assay [2] (setting [4]) was under 100 nM throughout.

With `CN(CCN1CCOCC1)CCn1c(-c2ccc(OCc3ccccc3)cc2)c(C2CCCCC2)c2sc(C(=O)O)cc21` [Example 58, 5-(4-benzyloxyphenyl)-6-cyclohexyl-4-{2-[N-methyl-N-(2-morpholinoethyl)amino]ethyl}-4H-thieno[3,2-b]pyrrole-2-carboxylic acid dihydrochloride], the IC50 in assay [1] and in assay [2] (setting [4]) was 100 to 1000 nM each time.

With `CN(CCN1CCCCC1)CCn1c(-c2ccc(OCc3ccccc3)cc2)c(C2CCCCC2)c2sc(C(=O)O)cc21` [Example 59, 5-(4-benzyloxyphenyl)-6-cyclohexyl-4-{2-[N-methyl-N-(2-piperidinoethyl)amino]ethyl}-4H-thieno[3,2-b]pyrrole-2-carboxylic acid dihydrochloride], the IC50 in assay [1] was under 100 nM; in assay [2] (setting [4]), 100 to 1000 nM.
